Test results reported in the supplement of paper PMC10331698.
± gives the standard deviation of the averaged measurements.

How the values were obtained:
Experiment in all cases: level (log10 ratio to DMSO vehicle control); higher = higher biomarker level / cell amount than vehicle control
Settings in all cases: in DMSO
[1] = compound: O=S(=O)(OCC(F)(F)F)C(F)(F)C(F)(F)C(F)(F)C(F)(F)F [2,2,2-Trifluoroethyl perfluorobutanesulfonate]
Experimental: (§1)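 BioMAP Diversity Plus panel of 12 human primary cell co-culture systems (3C, 4H, LPS, SAg, BT, BF4T, BE3C, CASM3C, HDF3CGF, KF3CT, MyoF, Mphg). Compounds were added 1 h before stimulation and left for 24 h (MyoF 48 h; BT 72 h for soluble read-outs or 6 d for IgG). Biomarkers were read by ELISA, cytotoxicity by SRB, PBMC viability and proliferation by Alamar Blue. Each well value was divided by the mean of 8 DMSO control wells on the same plate and log10 transformed; duplicate blinded samples were tested at 4 concentrations.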

[2] = compound: FC(F)(F)C(F)(F)C(F)(F)C(F)(F)CCI [1H,1H,2H,2H-Perfluorohexyl iodide]
Experimental: as §1

[3] = compound: O=S(=O)(O)CCC(F)(F)C(F)(F)C(F)(F)C(F)(F)F [4:2 Fluorotelomer sulfonic acid]
Experimental: as §1

[4] = compound: O=P(O)(O)CCC(F)(F)C(F)(F)C(F)(F)C(F)(F)C(F)(F)C(F)(F)F [2-(Perfluorohexyl)ethylphosphonic acid]
Experimental: as §1

[5] = compound: C=CC(=O)OCC(F)(F)C(F)(F)C(F)(F)C(F)(F)C(F)(F)C(F)(F)C(F)(F)C(F)F [1H,1H,9H-Perfluorononyl acrylate]
Experimental: as §1

[6] = compound: C=CC(=O)OCCC(F)(F)C(F)(F)C(F)(F)C(F)(F)C(F)(F)C(F)(F)C(F)(F)C(F)(F)F [8:2 Fluorotelomer acrylate]
Experimental: as §1

Test System | level (log10) ([1]; 6700 nM) | level (log10) ([1]; 20000 nM) | level (log10) ([1]; 60000 nM) | level (log10) ([2]; 6700 nM) | level (log10) ([2]; 20000 nM) | level (log10) ([2]; 60000 nM) | level (log10) ([3]; 6700 nM) | level (log10) ([3]; 20000 nM) | level (log10) ([3]; 60000 nM) | level (log10) ([4]; 6700 nM) | level (log10) ([4]; 20000 nM) | level (log10) ([4]; 60000 nM) | level (log10) ([5]; 6700 nM) | level (log10) ([5]; 20000 nM) | level (log10) ([5]; 60000 nM) | level (log10) ([6]; 6700 nM) | level (log10) ([6]; 20000 nM) | level (log10) ([6]; 60000 nM)
HDF3CGF:CCL2/MCP-1 | -0.0125 ± 0.021 | 0.0255 ± 0.021 | -0.0205 ± 0.033 | -0.0045 ± 0.005 | 0.0155 ± 0.012 | 0.007 ± 0.021 | -0.008 ± 0.0071 | -0.009 ± 0.017 | 0.0105 ± 0.028 | -0.0335 ± 0.0021 | -0.013 ± 0.023 | -0.053 ± 0.023 | -0.0315 ± 0.03 | -0.045 ± 0.03 | -0.0815 ± 0.046 | -0.03 ± 0.017 | -0.042 ± 0.031 | -0.0805 ± 0.044
CASM3C:SRB | -0.006 | -0.005 ± 0.0028 | -0.0055 ± 0.0064 | 0 ± 0.014 | -0.0005 ± 0.0092 | -0.005 ± 0.033 | -0.0045 ± 0.0064 | -0.013 ± 0.0028 | -0.001 ± 0.0028 | -0.0005 ± 0.0035 | -0.012 ± 0.017 | -0.016 ± 0.02 | 0.0075 ± 0.015 | 0.005 ± 0.0014 | -0.001 ± 0.014 | -0.002 | 0.005 ± 0.0099 | 0.0085 ± 0.0064
KF3CT:SRB | -0.001 | -0.0045 ± 0.0021 | -0.0025 ± 0.0092 | -0.013 ± 0.0099 | -0.01 ± 0.013 | 0.0035 ± 0.015 | -0.0015 ± 0.0021 | -0.0015 ± 0.0021 | 0.0035 ± 0.0092 | -0.0015 ± 0.0035 | -0.011 ± 0.0028 | -0.007 ± 0.013 | 0.003 ± 0.0014 | -0.002 ± 0.0085 | 0.0045 ± 0.018 | -0.0005 ± 0.005 | 0.002 ± 0.0085 | 0.0105 ± 0.013
HDF3CGF:M-CSF | -0.009 ± 0.0057 | 0.0105 ± 0.022 | 0.0195 ± 0.005 | -0.015 ± 0.0085 | -0.0295 ± 0.0064 | -0.074 ± 0.014 | -0.038 ± 0.05 | -0.062 ± 0.05 | -0.0835 ± 0.019 | 0.0025 ± 0.0092 | 0.0265 ± 0.0092 | 0.013 ± 0.014 | -0.039 | -0.079 ± 0.041 | -0.254 ± 0.076 | -0.0205 ± 0.011 | -0.0375 ± 0.0021 | -0.0165 ± 0.013
CASM3C:CCL2/MCP-1 | -0.0155 ± 0.0035 | -0.0105 ± 0.005 | 0.0065 ± 0.0035 | 0.0045 ± 0.0021 | -0.008 ± 0.0028 | 0.0235 ± 0.067 | -0.002 ± 0.0057 | 0.0015 ± 0.011 | 0.0125 ± 0.036 | -0.009 ± 0.0028 | -0.0145 ± 0.013 | -0.003 ± 0.033 | -0.0125 ± 0.0035 | -0.0095 ± 0.0092 | -0.0075 ± 0.018 | -0.0085 ± 0.0021 | -0.012 ± 0.016 | 0.0085 ± 0.032
KF3CT:uPA | -0.0085 ± 0.0021 | -0.043 ± 0.079 | -0.075 ± 0.0042 | -0.001 ± 0.02 | 0.0045 ± 0.013 | -0.005 ± 0.0099 | 0 ± 0.0042 | 0 ± 0.0028 | -0.0075 ± 0.028 | 0.007 ± 0.0057 | 0.013 ± 0.011 | 0.015 ± 0.02 | -0.0285 ± 0.012 | -0.005 ± 0.025 | -0.0395 ± 0.013 | 0.003 ± 0.013 | -0.0165 ± 0.037 | -0.004 ± 0.0014
KF3CT:TIMP-2 | -0.049 ± 0.0057 | -0.0215 ± 0.049 | -0.0495 ± 0.00071 | -0.0185 ± 0.005 | -0.009 ± 0.018 | -0.008 ± 0.02 | -0.0215 ± 0.023 | -0.0185 ± 0.042 | -0.0025 ± 0.0064 | -0.0075 ± 0.012 | 0.011 | 0.013 ± 0.017 | -0.0125 ± 0.046 | -0.022 ± 0.0085 | -0.042 ± 0.011 | -0.0125 ± 0.037 | -0.02 | 0.016 ± 0.013
lMphg:IL-1alpha | -0.012 ± 0.0028 | -0.0425 ± 0.06 | -0.073 ± 0.0014 | 0.008 | 0.0045 ± 0.012 | 0.0345 ± 0.0078 | 0.026 ± 0.048 | 0.0125 ± 0.032 | 0.007 ± 0.021 | -0.0265 ± 0.021 | -0.029 ± 0.024 | 0.0075 ± 0.084 | 0.006 ± 0.038 | -0.0025 ± 0.054 | 0.0195 ± 0.063 | -0.012 | -0.007 ± 0.021 | 0.035 ± 0.059
lMphg:CD40 | -0.0015 ± 0.00071 | 0.0085 ± 0.04 | -0.007 ± 0.017 | -0.017 ± 0.014 | -0.0245 ± 0.029 | -0.018 ± 0.025 | -0.008 ± 0.0028 | -0.015 ± 0.021 | -0.026 ± 0.011 | -0.0155 ± 0.0021 | -0.0165 ± 0.00071 | -0.012 ± 0.041 | -0.0205 ± 0.005 | -0.022 ± 0.018 | -0.032 ± 0.021 | -0.014 ± 0.025 | -0.0065 ± 0.0078 | -0.0225 ± 0.021
HDF3CGF:Proliferation 72hr | -0.046 | -0.0425 ± 0.029 | -0.1 ± 0.047 | 0.0275 ± 0.025 | 0.0095 ± 0.076 | 0.006 ± 0.04 | -0.022 ± 0.092 | 0.001 ± 0.021 | -0.007 ± 0.047 | -0.009 ± 0.068 | 0.119 ± 0.021 | 0.191 ± 0.03 | -0.072 ± 0.079 | -0.454 ± 0.021 | -0.666 ± 0.15 | -0.011 ± 0.0099 | -0.026 ± 0.044 | -0.154 ± 0.076
CASM3C:IL-6 | -0.02 ± 0.033 | -0.0685 ± 0.0078 | -0.029 ± 0.024 | 0.0195 ± 0.028 | 0.005 ± 0.025 | 0.036 ± 0.098 | 0.0015 ± 0.0092 | -0.0065 ± 0.0078 | 0.001 ± 0.028 | -0.0285 ± 0.005 | -0.0425 ± 0.018 | -0.0095 ± 0.025 | -0.036 ± 0.042 | 0.0085 ± 0.074 | -0.031 ± 0.047 | -0.023 ± 0.0099 | -0.017 ± 0.027 | 0.0105 ± 0.05
HDF3CGF:CXCL10/IP-10 | -0.024 ± 0.0014 | -0.058 | -0.099 ± 0.0042 | 0.0045 ± 0.035 | -0.0155 ± 0.0064 | -0.069 ± 0.02 | 0.0085 ± 0.0078 | -0.013 ± 0.016 | -0.0205 ± 0.06 | 0.014 ± 0.0028 | 0.0505 ± 0.0078 | 0.0525 ± 0.037 | -0.0105 ± 0.0064 | -0.041 ± 0.048 | -0.15 ± 0.096 | 0.01 ± 0.021 | 0.003 ± 0.037 | 0.01 ± 0.028
MyoF:CD106/VCAM-1 | -0.01 ± 0.011 | 0.026 ± 0.014 | -0.0075 ± 0.0021 | 0.001 ± 0.0071 | -0.0135 ± 0.015 | -0.059 ± 0.014 | -0.0015 ± 0.013 | -0.0115 ± 0.0092 | -0.004 ± 0.0014 | 0.0025 ± 0.011 | 0.01 ± 0.0014 | -0.001 | -0.0025 ± 0.0035 | -0.032 ± 0.0071 | -0.163 ± 0.0057 | -0.012 ± 0.0071 | -0.0335 ± 0.0078 | -0.027 ± 0.023
CASM3C:CD142/Tissue Factor | 0.013 ± 0.011 | 0.0485 ± 0.0021 | 0.133 ± 0.052 | -0.019 ± 0.034 | -0.0065 ± 0.0078 | 0.0235 ± 0.035 | -0.0115 ± 0.018 | 0.0115 ± 0.015 | 0.0095 ± 0.03 | -0.0165 ± 0.0064 | -0.007 ± 0.014 | -0.033 ± 0.0071 | 0.0345 ± 0.026 | -0.003 ± 0.061 | -0.016 ± 0.0014 | -0.036 ± 0.021 | -0.047 ± 0.05 | -0.0145 ± 0.032
HDF3CGF:MMP-1 | 0.0125 ± 0.0078 | 0.022 ± 0.0085 | 0.0405 ± 0.0092 | -0.001 ± 0.0014 | 0.0085 ± 0.0035 | 0.0145 ± 0.018 | -0.009 ± 0.0028 | -0.0285 ± 0.028 | -0.0365 ± 0.026 | 0.006 ± 0.0071 | -0.0095 ± 0.013 | -0.0045 ± 0.067 | 0.006 ± 0.0057 | 0.03 ± 0.0057 | 0.0375 ± 0.016 | 0.0165 ± 0.015 | 0.026 ± 0.011 | 0.0235 ± 0.029
MyoF:Collagen I | -0.0215 ± 0.0092 | -0.0045 ± 0.03 | -0.043 ± 0.023 | -0.0005 ± 0.0035 | 0.0005 ± 0.022 | 0.0205 ± 0.042 | 0.004 ± 0.013 | -0.0155 ± 0.015 | 0.018 | -0.0025 ± 0.005 | -0.0045 ± 0.0021 | 0.0085 ± 0.011 | 0.0005 ± 0.023 | 0.0025 ± 0.00071 | -0.033 ± 0.028 | -0.0095 ± 0.005 | -0.0205 ± 0.015 | 0.011 ± 0.0099
